± gives the standard deviation of the averaged measurements.
Legend:
S1507-2 [1] = assay: % inhibition of CellTiter-Glo viability at highest tested concentration (72 h), relative to DMSO and benzethonium chloride controls; higher = more inhibition
Summary of the method: (§1)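 Viability was scored by CellTiter-Glo ATP luminescence, scaled from vehicle to positive-control wells, with duplicates averaged where present. The cells, MPNST lines and primary human Schwann cells at 750–1000 per well, sat 72 h at 37 °C, 5% CO2, in 384-well plates preprinted with each compound at five concentrations in 10-fold steps. Four-parameter logistic fits were run on the data. These fits give drug sensitivity score and relative IC50 censored at the top concentration, and percent inhibition is reported at the top concentration.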

YST-1 [2] = assay: as above
Summary of the method: as §1

S462 [3] = assay: as above
Summary of the method: as §1

ST8814 [4] = assay: as above
Summary of the method: as §1

HS-PSS [5] = assay: as above
Summary of the method: as §1

HS-Sch-2 [6] = assay: as above
Summary of the method: as §1

STS26T [7] = assay: as above
Summary of the method: as §1

[8] = system: HSC1 (primary human Schwann cells); assay: as above
Summary of the method: as §1

[9] = system: HSC2 (primary human Schwann cells); assay: as above
Summary of the method: as §1

S1507-2 [10] = assay: drug sensitivity score (DSS, CellTox-Green cytotoxicity, 72 h) (DSS (dimensionless)); higher = more cytotoxic; extreme values may be limits of the assay
Summary of the method: (§2)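 MPNST cell lines and primary human Schwann cells were incubated 72 h at 37 °C in 384-well plates holding five 10-fold compound dilutions. CellTox-Green was added before seeding at a final 1:1000 dilution and reported fluorescence from DNA released by disrupted cells. Signals were scaled to vehicle and positive-control wells, and cultures failing plate quality control were dropped. Drug sensitivity score and relative IC50 come from four-parameter logistic fits, with IC50 censored at the top concentration.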

ST8814 [11] = assay: as above
Summary of the method: as §2

HS-PSS [12] = assay: as above
Summary of the method: as §2

STS26T [13] = assay: as above
Summary of the method: as §2

[14] = system: HSC1 (primary human Schwann cells); assay: as above
Summary of the method: as §2

[15] = system: HSC2 (primary human Schwann cells); assay: as above
Summary of the method: as §2

S1507-2 [16] = assay: drug sensitivity score (DSS, CellTiter-Glo viability, 72 h) (DSS (dimensionless)); higher = more sensitive; extreme values may be limits of the assay
Summary of the method: as §1

YST-1 [17] = assay: as above
Summary of the method: as §1

S462 [18] = assay: as above
Summary of the method: as §1

ST8814 [19] = assay: as above
Summary of the method: as §1

HS-PSS [20] = assay: as above
Summary of the method: as §1

HS-Sch-2 [21] = assay: as above
Summary of the method: as §1

STS26T [22] = assay: as above
Summary of the method: as §1

[23] = system: HSC1 (primary human Schwann cells); assay: as above
Summary of the method: as §1

[24] = system: HSC2 (primary human Schwann cells); assay: as above
Summary of the method: as §1

Compound | % inhibition (S1507-2 [1]) [%] | % inhibition (YST-1 [2]) [%] | % inhibition (S462 [3]) [%] | % inhibition (ST8814 [4]) [%] | % inhibition (HS-PSS [5]) [%] | % inhibition (HS-Sch-2 [6]) [%] | % inhibition (STS26T [7]) [%] | % inhibition [8] [%] | % inhibition [9] [%] | drug sensitivity score (S1507-2 [10]) | drug sensitivity score (ST8814 [11]) | drug sensitivity score (HS-PSS [12]) | drug sensitivity score (STS26T [13]) | drug sensitivity score [14] | drug sensitivity score [15] | drug sensitivity score (S1507-2 [16]) | drug sensitivity score (YST-1 [17]) | drug sensitivity score (S462 [18]) | drug sensitivity score (ST8814 [19]) | drug sensitivity score (HS-PSS [20]) | drug sensitivity score (HS-Sch-2 [21]) | drug sensitivity score (STS26T [22]) | drug sensitivity score [23] | drug sensitivity score [24]
O=C(Nc1cccnc1)N1CCC(Cc2cccc(Oc3ccc(C(F)(F)F)cn3)c2)CC1 [PF-3845] (max concentration tested 10000 nM) | 2.03 ± 3.1 | 25.5 | 20.3 ± 0.84 | 11.5 | 79.6 | 79 | 24.2 | 33.5 | 35.3 | 0 | 0 | 0 | 0 | 0 | 0.053 | 0 | 0.86 | 0.985 ± 0.1 | 0.0881 | 7.9 | 4.52 | 1.18 | 2.77 | 3.19
COc1ccccc1S(=O)(=O)Nc1ccc2c(c1)CN(C)C(=O)N2 [PFI-1] (max concentration tested 10000 nM) | 69.2 ± 3.9 | 56.6 | 53.6 ± 4.7 | 63.6 | 48.1 | 58.4 | 39.5 | 62.2 | 53.7 | 2.07 ± 1.1 | 1.77 | 0 | 0 | 0 | 0 | 6.21 ± 0.6 | 4.93 | 4.68 ± 0.9 | 5.94 | 2.11 | 5.21 | 3.53 | 3.78 | 4.03
CC(=O)O[C@H]1C(=O)[C@@]2(C)[C@H]([C@H](OC(=O)c3ccccc3)[C@]3(O)C[C@H](OC(=O)[C@H](O)[C@@H](NC(=O)c4ccccc4)c4ccccc4)C(C)=C1C3(C)C)[C@]1(OC(C)=O)CO[C@@H]1C[C@@H]2O [Paclitaxel] (max concentration tested 1000 nM) | 84.6 ± 1 | 81.6 | 99.3 ± 1.5 | 94.5 | 45.7 | 93 | 99.6 | 70.6 | 73.9 | 15.9 ± 1.1 | 18.6 | 0 | 33.8 | 17.8 | 20.3 | 17.3 ± 0.6 | 23.7 | 28.8 ± 1.5 | 18.3 | 12.2 | 23.3 | 28.1 | 18 | 19.1
CC(=O)c1c(C)c2cnc(Nc3ccc(N4CCNCC4)cn3)nc2n(C2CCCC2)c1=O [Palbociclib] (max concentration tested 10000 nM) | 38.8 ± 0.47 | 44.5 | 72.2 ± 6.1 | 28 | 41.6 | 68.8 | 36.7 | 31.6 | 45.6 | 1.02 ± 1.1 | 0 | 0 | 0 | 0 | 0 | 3.73 ± 0.74 | 3.89 | 8.25 ± 0.96 | 1.84 | 3.5 | 5.62 | 3.39 | 5.26 | 7.37
Cc1[nH]c2ccccc2c1CCNCc1ccc(/C=C/C(=O)NO)cc1 [Panobinostat] (max concentration tested 1000 nM) | 104.5 ± 0.79 | 99.9 | 103.7 ± 0.37 | 101 | 93.9 | 101 | 98 | 101 | 101 | 20.6 ± 0.84 | 16.1 | 9.17 | 11.1 | 10.5 | 10.7 | 24.1 ± 0.61 | 23.7 | 22.7 ± 0.67 | 22 | 14.1 | 19.1 | 16.8 | 19.5 | 16.7
C/C(=C\c1csc(C)n1)[C@@H]1C[C@@H]2O[C@]2(C)CCC[C@H](C)[C@H](O)[C@@H](C)C(=O)C(C)(C)[C@@H](O)CC(=O)O1 [Patupilone] (max concentration tested 1000 nM) | 80.9 ± 0.77 | 78.1 | 92.6 ± 0.95 | 84.4 | 42.2 | 91.9 | 96.8 | 70 | 73 | 21.9 ± 2.8 | 23.9 | 0 | 36.6 | 11.5 | 18.8 | 24.4 ± 1.7 | 31 | 37.7 ± 0.67 | 28.4 | 17.9 | 32.7 | 36.5 | 29.1 | 25.2
Cc1ccc(Nc2nccc(N(C)c3ccc4c(C)n(C)nc4c3)n2)cc1S(N)(=O)=O [Pazopanib] (max concentration tested 10000 nM) | 9.04 ± 7 | 0.99 | -0.988 ± 9.1 | -2.02 | 42.6 | 20.7 | 7.27 | 20.7 | 15.2 | 0 | 0 | 0 | 0 | 0 | 0 | 0.325 ± 0.46 | 0 | 0 | 0 | 6.09 | 1.37 | 0 | 2.03 | 0.68
OC[C@H]1O[C@@H](n2cnc3c2N=CNC[C@H]3O)C[C@@H]1O [Pentostatin] (max concentration tested 10000 nM) | -4.44 ± 9.6 | 9.08 | -16.1 ± 7.5 | -0.684 | 6.06 | 8.51 | -3.81 | 4.07 | 0.65 | 0 | 0 | 0 | 0 | 0 | 0 | 0 | 1.08 | 0 | 0 | 0 | 0 | 0 | 0 | 0
NS(=O)(=O)OC[C@@H]1C[C@@H](n2ccc3c(N[C@H]4CCc5ccccc54)ncnc32)C[C@@H]1O [Pevonedistat] (max concentration tested 10000 nM) | 87.5 ± 1.1 | 67.7 | 96.07 ± 0.96 | 95.6 | 97 | 101 | 83.4 | 77.1 | 84.4 | 16.7 ± 2.1 | 19.3 | 10.7 | 11.7 | 4.84 | 3 | 17.3 ± 1 | 15.2 | 23.2 ± 1.4 | 20 | 23.8 | 28 | 12.7 | 12 | 14.3
CC[C@@H]1C(=O)OC[C@@H]1Cc1cncn1C [Pilocarpine] (max concentration tested 40000 nM) | -0.921 ± 8.8 | -0.64 | -8.07 ± 3.1 | -5.43 | 3.53 | 14.2 | -5.95 | -5.47 | -5.33 | 0 | 0 | 0 | 0 | 0 | 0 | 0.028 ± 0.04 | 0 | 0 | 0 | 0 | 0.48 | 0 | 0 | 0
O=C(NC[C@H](O)CO)c1ccncc1Nc1ccc(I)cc1F [Pimasertib] (max concentration tested 10000 nM) | 81.8 ± 2.4 | 34.4 | 83.69 ± 0.41 | 95.9 | 44.3 | 55.4 | 42 | 60.7 | 65 | 5.35 ± 0.4 | 6.32 | 0 | 0.309 | 0.153 | 0 | 11.9 ± 1.4 | 1.29 | 11.9 ± 0.82 | 10.8 | 2.94 | 5.83 | 6.72 | 7.67 | 7.43
O=C(CCBr)N1CCN(C(=O)CCBr)CC1 [Pipobroman] (max concentration tested 10000 nM) | -11.3 ± 2.3 | 4.98 | -17 ± 7.2 | -3.56 | 1.73 | 9.93 | -2.55 | 0.741 | 0.945 | 0 | 0 | 0 | 0 | 0 | 0 | 0 | 0 | 0 | 0 | 0 | 0 | 0 | 0 | 0
CO[C@H](C(=O)[C@@H](O)[C@@H](C)O)[C@@H]1Cc2cc3cc(O[C@H]4C[C@@H](O[C@H]5C[C@@H](O)[C@H](O)[C@@H](C)O5)[C@@H](O)[C@@H](C)O4)c(C)c(O)c3c(O)c2C(=O)[C@H]1O[C@H]1C[C@@H](O[C@H]2C[C@@H](O[C@H]3C[C@](C)(O)[C@H](O)[C@@H](C)O3)[C@H](O)[C@@H](C)O2)[C@H](O)[C@@H](C)O1 [Plicamycin] (max concentration tested 10000 nM) | 87 ± 2.5 | 101 | 97.26 ± 0.26 | 82.8 | 96.8 | 102 | 95.8 | 83.7 | 87 | 10.4 ± 4.4 | 0 | 2.63 | 25.9 | 10.6 | 12.6 | 22.5 ± 0.9 | 14.8 | 24.32 ± 0.091 | 25.7 | 9.51 | 12.5 | 27 | 24.4 | 24.6

Source: the supplement of paper PMC5579334
